Source: US11826369B2, “Targeting the TLK1/NEK1 axis in prostate cancer” (Board of Supervisors of Louisiana State University and …, priority 2019, dated 2023)
Entries after “also recorded” stand apart in the source; their conditions may differ.

Experiments:
C. elegans = test: Behavioral assays in C. elegans; assay type: in vivo
Protocol: FIGS. 19A-19C show behavioral assays in C. elegans. In FIG. 15A, for the pharyngeal pumping assay, wild-type animals (N2 strain) were transferred to plates with diluted DMSO (Control) or drug (J-54 or trifluoperazine) at 160 μM final concentration for 90 min before quantifying pharyngeal pumping see SI methods). The inventors counted visible movement of the grinder (pharyngeal contractions) for 30 sec to obtain the pumping rate (N=45). […] Inhibition of pharyngeal pumping by trifluoperazine (TFP), a typical PTH antipsychotic, is attributed to its known activity as a dopamine and calmodulin antagonist. In FIG. 15B. foraging, regulated by serotonin and dopamine, was studied in wild-type animals evaluated in the presence of DMSO (Control) or J54 at a high dose of 160 μM vs. TFP at 40 μM. The number of omega turns (head touches body) and reversals were then counted over the next 3 min to quantify search behavior for each group (N=13 per group). […] Dopamine produces immobility in C. elegans after 2-3 hr of exposure. Antipsychotic drugs, such as haloperidol, that potently block D2 dopamine receptors largely counteract the effects of dopamine, i.e., more animals continue to move on plates that include dopamine plus drug. Wild-type animals were incubated on 60 agar plates with bacteria and diluted DMSO (Control) or J54 or haloperidol at 160 μM final concentrations. After 1 hr on these plates, they were transferred to 60 mm agar plates with bacteria that also contained dopamine (final concentration 25 mM) plus diluted DMSO (Control) or else J-54 or haloperidol at final concentrations of 160 μM. After 3 hr on the dopamine plates, the inventors examined movement and counted animals as moving if they traversed half their body length in either the forward or backward direction during a 5-sec observation period. The inventors then calculated the percentage of animals moving and repeated this experiment three times to confirm the effects of drug.
We then did a general assessment of mice following injections of J54. […]

[1] = test system: RWPE1 (normal prostate) cell line; test: Cell proliferation assay, normal prostate cells; assay type: cell-based, human
Protocol: (§1) All experiments were conducted in triplicates. […] The cells were grown for 2-3 weeks and stained with crystal violet. All experiments were conducted in triplicates. […] The cell lines used were human “normal” RWPE-1, LNCaP, (LNCaP-derivative) C4-2B, 22RV1, DU14, PC3, and mouse TRAMP-C2. FIGS. 11C and 11D show cell proliferation of LNCaP and TRAMP-C2 were determined during a 3 days incubation with different concentration of J54 (MTS assay). All experiments were conducted in triplicates. […] Representative analysis of two independent experiments are shown.
(§2) J54 in combination with anti-androgen (Bicalutamide) induces apoptosis in AS PCa cells. […] The inventors thus tested the same panel of cells in androgen containing medium (FBS) by proliferation assays. […] Note that VCaP cells were 60% inhibited by J54 alone, consistent with their elevated replication stress-driven DDR and checkpoint activation (FIG. 12E), which when suppressed with J54 could lead to apoptosis. Clonogenic assays are unable to distinguish the effects of a DNA damaging agent, which can result in either an impaired or delayed resumption of growth (cell division) or loss of viability due to increased killing of the initial population. The inventors thus measured in LNCaP and TRAMP-C2 cells the early change in cell number (MTT assay) over 72 h with J54 alone.

LNCaP, VCaP and TRAMP-C2 = test: Clonogenic assays of AS PCa cells; assay type: cell-based
Protocol: as §1, §2

recombinant TLK1B = molecular target: T1, recombinant TLK1B (Homo sapiens, UniProt Q9UKI8); test: TLK1B kinase assay with Nek1 peptide (ADP Hunter), inhibitor screening; assay type: biochemical; design: The full-length, 65 KDa recombinant human TLK1B (hTLK1B) for the in-vitro experiments was expressed and purified from bacteria; made in house; host or cells: bacteria
T1 sequence (Q9UKI8 1-549 isoform Q9UKI8-3): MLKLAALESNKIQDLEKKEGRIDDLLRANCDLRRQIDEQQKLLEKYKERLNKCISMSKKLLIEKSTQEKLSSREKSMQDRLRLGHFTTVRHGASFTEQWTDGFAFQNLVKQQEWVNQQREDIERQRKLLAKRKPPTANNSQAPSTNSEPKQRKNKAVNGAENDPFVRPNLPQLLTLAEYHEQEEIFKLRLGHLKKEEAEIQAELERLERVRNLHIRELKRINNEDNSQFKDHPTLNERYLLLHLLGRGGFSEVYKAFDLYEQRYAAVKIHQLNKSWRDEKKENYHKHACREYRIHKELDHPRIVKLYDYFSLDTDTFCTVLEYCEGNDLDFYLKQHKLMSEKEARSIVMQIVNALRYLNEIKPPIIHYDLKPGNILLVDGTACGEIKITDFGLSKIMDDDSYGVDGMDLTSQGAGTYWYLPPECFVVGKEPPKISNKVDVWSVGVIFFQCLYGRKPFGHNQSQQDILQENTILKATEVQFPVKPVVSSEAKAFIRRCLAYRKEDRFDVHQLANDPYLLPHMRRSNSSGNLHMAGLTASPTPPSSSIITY
Protocol: FIG. 8A-FIG. 25 show further experiments into the present invention, with FIGS. 8A-8G show kinase assays, inhibitor screening, IC50 evaluation and competitive assays. Recombinant TLK1B purified to homogeneity (FIG. 8A) is active in kinase assays (FIG. 8B) and phosphorylates a specific Nek1 peptide (FIG. 8C). […] All experiments were conducted in triplicates. The DiscoverRx ADP Hunter™ (Eurofins DiscoverRx, Fremont, CA, US) Kit was used to measure the generation of ADP resulting from kinase phosphorylation of substrate.
Chemical synthesis of J54 and several different Phenothiazines and Protein expression and purification: Details were explained in section B of supplementary of material and methods. The full-length, 65 KDa recombinant human TLK1B (hTLK1B) for the in-vitro experiments was expressed and purified from bacteria as described earlier.
Results: A new PTH potent inhibitor of TLK1B. A few PTH antipsychotics were identified in a screen the inventors conducted from a compounds library as good inhibitors of TLK1. To find additional inhibitors, recombinant TLK1B was purified (FIG. 8A). The enzymatic activity was determined using the ADP-Hunter reagents and a Nek1 peptide containing the T141 target site. […] Several structurally similar compounds were synthesized as described in the Appendix (and see NMR and MS data FIGS. 10 and 11) and tested at 20 μM (FIGS. 8E and 8F). […] The inventors continued the inventors' characterization of J54.

[2] = test system: recombinant human dopamine receptors (D1 and D3); test: Competitive radioassay with 7-Hydroxy DPAT, R-(+)-[3H] tracer; assay type: binding; conditions: 100 nM, compared to THD

c1ccc2c(c1)Sc1ccccc1N2CCN1CCOCC1 [J54, 4-(2-(10H-phenothiazin-10-yl)ethyl) morpholine]
pharyngeal pumping rate (C. elegans; 160 μM, 90 min): reduced the pumping rate but to a lesser extent than a much lower concentration of TFP | toxicity to worms (C. elegans; prolonged exposure): not toxic to worms even after prolonged exposure | behavioral effects attributable to DR2 activity (C. elegans; three studies): much weaker behavioral effects | sensitivity of normal cells [1]: insensitive; also recorded: non-toxic to normal cells | growth of colonies of LNCaP cells cultured with BIC (LNCaP, VCaP and TRAMP-C2): suppresses the growth of androgen-dependent colonies | IC50 (recombinant TLK1B; new inhibitor screening assay): 12.6 µM | inhibition of TLK1B compared with standard (recombinant TLK1B; tested at 20 μM): more inhibitory than Staurosporin | antagonism of dopamine receptors [2]: very weak antagonist
